In PubChem BioAssay (NCI):
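Tested at 5 concentrations; 48 h exposure; 96-well plates; endpoints linearly interpolated, else capped at highest concentration. At the TGI there is no net growth.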

Tests used:
Test in all cases: inhibition of tumour cell growth, NCI panel, 48 h
SK-MEL-2 melanoma = system: SK-MEL-2 melanoma
HOP-92 NSCLC = system: HOP-92 NSCLC
U251 CNS = system: U251 CNS
SR leukemia = system: SR leukemia
UACC-257 melanoma = system: UACC-257 melanoma
SK-OV-3 ovarian = system: SK-OV-3 ovarian
OVCAR-4 ovarian = system: OVCAR-4 ovarian
UO-31 renal = system: UO-31 renal
SF-295 CNS = system: SF-295 CNS
NCI-H23 lung = system: NCI-H23 lung
MOLT-4 leukemia = system: MOLT-4 leukemia
SK-MEL-28 melanoma = system: SK-MEL-28 melanoma
M14 melanoma = system: M14 melanoma
TK-10 renal = system: TK-10 renal
SN12C renal = system: SN12C renal
SNB-19 CNS = system: SNB-19 CNS
UACC-62 melanoma = system: UACC-62 melanoma
A549 NSCLC = system: A549 NSCLC
CCRF-CEM leukemia = system: CCRF-CEM leukemia
HT29 colon = system: HT29 colon

Work on COc1ccc(-c2csc(=Nc3ccccc3)n2CCCN(C)C)cc1 yielded a TGI (SK-MEL-2 melanoma) of 37.7 µM, a TGI (HOP-92 NSCLC) greater than 100 µM and a TGI (U251 CNS) greater than 100 µM. It also gave a TGI (SR leukemia) of 67.1 µM, a TGI (UACC-257 melanoma) of 37.5 µM and a TGI (SK-OV-3 ovarian) of 39.4 µM. The TGI (OVCAR-4 ovarian) was 65.6 µM, the TGI (UO-31 renal) was 44.9 µM and the TGI (SF-295 CNS) was 27.6 µM. It also gave a TGI (NCI-H23 lung) of 48.5 µM, a TGI (MOLT-4 leukemia) of 48.9 µM and a TGI (SK-MEL-28 melanoma) of 58.1 µM. It also gave a TGI (M14 melanoma) of 24.4 µM, a TGI (TK-10 renal) of 29.8 µM and a TGI (SN12C renal) greater than 100 µM. For the same compound, the TGI (SNB-19 CNS) was 48.1 µM, the TGI (UACC-62 melanoma) was 34.7 µM and the TGI (A549 NSCLC) was 36.3 µM. The TGI (CCRF-CEM leukemia) was greater than 100 µM.

COc1cc(C2S/C(=C/c3ccccc3)C(=O)N2c2ccc(NC(C)=O)cc2)cc(OC)c1OC (stereo not drawn) was tested, and the TGI (SK-MEL-2 melanoma) was 20.3 µM, the TGI (HOP-92 NSCLC) was 83.6 µM and the TGI (U251 CNS) was 38.5 µM. It also gave a TGI (SR leukemia) greater than 100 µM, a TGI (HT29 colon) of 32 µM and a TGI (UACC-257 melanoma) greater than 100 µM. The TGI (SK-OV-3 ovarian) was greater than 100 µM, the TGI (OVCAR-4 ovarian) was greater than 100 µM and the TGI (UO-31 renal) was greater than 100 µM. The TGI (SF-295 CNS) was greater than 100 µM, the TGI (NCI-H23 lung) was 66.8 µM and the TGI (MOLT-4 leukemia) was 75.6 µM. It also gave a TGI (SK-MEL-28 melanoma) greater than 100 µM, a TGI (M14 melanoma) of 56.9 µM and a TGI (TK-10 renal) greater than 100 µM. The TGI (SN12C renal) was 60.3 µM, the TGI (SNB-19 CNS) was greater than 100 µM and the TGI (UACC-62 melanoma) was greater than 100 µM. It also gave a TGI (A549 NSCLC) greater than 100 µM and a TGI (CCRF-CEM leukemia) of 20.4 µM.

In the case of O=C1C(Cl)N(c2cccc(Cl)c2)C1c1c[nH]c2ccccc12 (stereo not drawn), the TGI (SK-MEL-2 melanoma) is reported as greater than 100 µM, the TGI (HOP-92 NSCLC) is reported as greater than 100 µM and the TGI (U251 CNS) is reported as greater than 100 µM. The TGI (SR leukemia) was greater than 100 µM, the TGI (HT29 colon) was greater than 100 µM and the TGI (UACC-257 melanoma) was greater than 100 µM. It also gave a TGI (SK-OV-3 ovarian) greater than 100 µM, a TGI (OVCAR-4 ovarian) greater than 100 µM and a TGI (UO-31 renal) greater than 100 µM. For the same compound, the TGI (SF-295 CNS) was greater than 100 µM, the TGI (NCI-H23 lung) was greater than 100 µM and the TGI (MOLT-4 leukemia) was greater than 100 µM. It also gave a TGI (SK-MEL-28 melanoma) greater than 100 µM, a TGI (M14 melanoma) greater than 100 µM and a TGI (TK-10 renal) greater than 100 µM. It also gave a TGI (SN12C renal) greater than 100 µM, a TGI (SNB-19 CNS) greater than 100 µM and a TGI (UACC-62 melanoma) greater than 100 µM. For the same compound, the TGI (A549 NSCLC) was greater than 100 µM and the TGI (CCRF-CEM leukemia) was greater than 100 µM.

Compound CCOC1=NC(C(F)(F)F)(C(F)(F)F)N=C(N2CCOCC2)O1 has a TGI (SK-MEL-2 melanoma) greater than 100 µM, a TGI (HOP-92 NSCLC) greater than 100 µM and a TGI (U251 CNS) greater than 100 µM. The TGI (SR leukemia) was greater than 100 µM, the TGI (HT29 colon) was greater than 100 µM and the TGI (UACC-257 melanoma) was greater than 100 µM. For the same compound, the TGI (SK-OV-3 ovarian) was greater than 100 µM, the TGI (OVCAR-4 ovarian) was greater than 100 µM and the TGI (UO-31 renal) was greater than 100 µM. The TGI (SF-295 CNS) was greater than 100 µM, the TGI (NCI-H23 lung) was greater than 100 µM and the TGI (MOLT-4 leukemia) was greater than 100 µM. It also gave a TGI (SK-MEL-28 melanoma) greater than 100 µM, a TGI (M14 melanoma) greater than 100 µM and a TGI (TK-10 renal) greater than 100 µM. For the same compound, the TGI (SN12C renal) was greater than 100 µM, the TGI (SNB-19 CNS) was greater than 100 µM and the TGI (UACC-62 melanoma) was greater than 100 µM. It also gave a TGI (A549 NSCLC) greater than 100 µM and a TGI (CCRF-CEM leukemia) greater than 100 µM.

In the case of CC[C@@H]1ON(C)[C@H]2CN(C)C(=O)[C@@H]12, the TGI (SK-MEL-2 melanoma) is reported as greater than 100 µM, the TGI (HOP-92 NSCLC) is reported as greater than 100 µM and the TGI (U251 CNS) is reported as greater than 100 µM. The TGI (SR leukemia) was greater than 100 µM, the TGI (HT29 colon) was greater than 100 µM and the TGI (UACC-257 melanoma) was greater than 100 µM. It also gave a TGI (SK-OV-3 ovarian) greater than 100 µM, a TGI (OVCAR-4 ovarian) greater than 100 µM and a TGI (UO-31 renal) greater than 100 µM. For the same compound, the TGI (SF-295 CNS) was greater than 100 µM, the TGI (NCI-H23 lung) was greater than 100 µM and the TGI (MOLT-4 leukemia) was greater than 100 µM. The TGI (SK-MEL-28 melanoma) was greater than 100 µM, the TGI (M14 melanoma) was greater than 100 µM and the TGI (TK-10 renal) was greater than 100 µM. The TGI (SN12C renal) was greater than 100 µM, the TGI (SNB-19 CNS) was greater than 100 µM and the TGI (A549 NSCLC) was greater than 100 µM. It also gave a TGI (CCRF-CEM leukemia) greater than 100 µM.

Work on COc1nc2ccc(COc3ccc(C(=O)NC(CCC(=O)O)C(=O)O)cc3)cc2nc1OC (stereo not drawn) yielded a TGI (SK-MEL-2 melanoma) greater than 10 µM, a TGI (HOP-92 NSCLC) greater than 10 µM and a TGI (U251 CNS) greater than 10 µM. It also gave a TGI (SR leukemia) greater than 10 µM, a TGI (HT29 colon) greater than 10 µM and a TGI (UACC-257 melanoma) greater than 10 µM. For the same compound, the TGI (SK-OV-3 ovarian) was greater than 10 µM, the TGI (OVCAR-4 ovarian) was greater than 10 µM and the TGI (UO-31 renal) was greater than 10 µM. It also gave a TGI (SF-295 CNS) greater than 10 µM, a TGI (NCI-H23 lung) greater than 10 µM and a TGI (MOLT-4 leukemia) greater than 10 µM. It also gave a TGI (SK-MEL-28 melanoma) greater than 10 µM, a TGI (M14 melanoma) greater than 10 µM and a TGI (TK-10 renal) greater than 10 µM. It also gave a TGI (SN12C renal) greater than 10 µM, a TGI (SNB-19 CNS) greater than 10 µM and a TGI (UACC-62 melanoma) greater than 10 µM. The TGI (A549 NSCLC) was greater than 10 µM and the TGI (CCRF-CEM leukemia) was greater than 10 µM.
